Where “and” joins values, the source holds several entries; their conditions need not be identical. Identical values can stand only once.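 Results reflect a 48-hour exposure of cells in 96-well plates to compound at five concentrations. The concentration for 50% growth inhibition is given as GI50.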 Calls of active or inactive are those of the source. No stated cut-off is given here; in the data, active = GI50 up to about 1.1 µM and inactive = higher.
How the values were obtained:
Test in all cases: inhibition of tumour cell growth, NCI panel, 48 h
PC-3 = tested on: PC-3
CCRF-CEM = tested on: CCRF-CEM
HL-60 = tested on: HL-60
Hs-578T = tested on: Hs-578T
U-251 = tested on: U-251
EKVX = tested on: EKVX
UO-31 = tested on: UO-31
RPMI-8226 = tested on: RPMI-8226
M14 = tested on: M14
UACC-62 = tested on: UACC-62
IGROV-1 = tested on: IGROV-1
SK-MEL-5 = tested on: SK-MEL-5
SNB-75 = tested on: SNB-75
SF-295 = tested on: SF-295
NCI-H23 = tested on: NCI-H23
COLO 205 = tested on: COLO 205
HCC 2998 = tested on: HCC 2998
RXF 393 = tested on: RXF 393
SF-268 = tested on: SF-268

Compound | GI50 (PC-3) | GI50 (CCRF-CEM) | GI50 (HL-60) | GI50 (Hs-578T) | GI50 (U-251) | GI50 (EKVX) | GI50 (UO-31) | GI50 (RPMI-8226) | GI50 (M14) | GI50 (UACC-62) | GI50 (IGROV-1) | GI50 (SK-MEL-5) | GI50 (SNB-75) | GI50 (SF-295) | GI50 (NCI-H23) | GI50 (COLO 205) | GI50 (HCC 2998) | GI50 (RXF 393) | GI50 (SF-268)
COc1ccc(S(=O)(=O)NC(CCC(=O)NC(N)=O)C(=O)NC(N)=O)cc1 (stereo not drawn) | > 100 µM (inactive) | > 100 µM (inactive) | 74.5 µM (inactive) | > 100 µM (inactive) | > 100 µM (inactive) | > 100 µM (inactive) | > 100 µM (inactive) | > 100 µM (inactive) | > 100 µM (inactive) | > 100 µM (inactive) | > 100 µM (inactive) | > 100 µM (inactive) | > 100 µM (inactive) | > 100 µM (inactive) | > 100 µM (inactive) | > 100 µM (inactive) | > 100 µM (inactive) | – | –
C/C(=N\c1ccc(N(C)C)cc1)c1ccccc1 | 23.4 µM (inactive) | 17.7 µM (inactive) | 16.4 µM (inactive) | 22.1 µM (inactive) | 22.5 µM (inactive) | 72.3 µM (inactive) | 17.8 µM (inactive) | – | 16.3 µM (inactive) | 17.1 µM (inactive) | 25.7 µM (inactive) | 15.9 µM (inactive) | 22.8 µM (inactive) | 31.9 µM (inactive) | 21.1 µM (inactive) | 17.8 µM (inactive) | 44.6 µM (inactive) | 5.35 µM (inactive) | > 10 µM (inactive)
O=C(Nn1cnn2c(=O)c3ccccc3nc2c1=O)c1ccccc1 | > 100 µM (inactive) | > 100 µM (inactive) | > 100 µM (inactive) | > 100 µM (inactive) | > 100 µM (inactive) | > 100 µM (inactive) | > 100 µM (inactive) | > 100 µM (inactive) | > 100 µM (inactive) | > 100 µM (inactive) | > 100 µM (inactive) | > 100 µM (inactive) | > 100 µM (inactive) | > 100 µM (inactive) | > 100 µM (inactive) | > 100 µM (inactive) | > 100 µM (inactive) | – | > 100 µM (inactive)
Cc1ccc(S(=O)(=O)N2CCC(C(=O)O)(c3ccccc3)CC2)cc1 | > 100 µM (inactive) | > 100 µM (inactive) | > 100 µM (inactive) | > 100 µM (inactive) | > 100 µM (inactive) | > 100 µM (inactive) | > 100 µM (inactive) | > 100 µM (inactive) | > 100 µM (inactive) | > 100 µM (inactive) | > 100 µM (inactive) | > 100 µM (inactive) | > 100 µM (inactive) | > 100 µM (inactive) | > 100 µM (inactive) | > 100 µM (inactive) | – | > 100 µM (inactive) | > 100 µM (inactive)
N#C/C(=C(\O)C(=O)O)c1ccc(-c2cccc3ccccc23)cc1 | > 100 µM (inactive) | 14.1 µM (inactive) | 19.5 µM (inactive) | > 100 µM (inactive) | > 100 µM (inactive) | 59.4 µM (inactive) | > 100 µM (inactive) | 29 µM (inactive) | > 100 µM (inactive) | > 100 µM (inactive) | > 100 µM (inactive) | > 100 µM (inactive) | > 100 µM (inactive) | > 100 µM (inactive) | > 100 µM (inactive) | > 100 µM (inactive) | – | > 100 µM (inactive) | > 100 µM (inactive)
O=c1c2cc(S(=O)(=O)O)ccc2nc(COc2ccc(Oc3ccc(Cl)cc3Cl)cc2)n1-c1ccc(Oc2ccc(Cl)cc2)cc1Cl | 26.7 µM (inactive) | 27.7 µM (inactive) | 19.2 µM (inactive) | 20 µM (inactive) | 16 µM (inactive) | 17.6 µM (inactive) | 13.9 µM (inactive) | 21.1 µM (inactive) | 19.4 µM (inactive) | 17.4 µM (inactive) | 23.1 µM (inactive) | 18.6 µM (inactive) | 22.6 µM (inactive) | 18.3 µM (inactive) | 21.7 µM (inactive) | 17.9 µM (inactive) | – | 0.0752 µM (active) | 12.7 µM (inactive)
COc1c2c(cc3nc4ccccc4nc13)CC[C@H](NC(C)=O)c1cc(=O)c(SC)ccc1-2 | 0.614 µM (active) | 0.532 µM (active) | – | 0.126 µM (active) | 0.353 µM (active) | 1.01 µM (active) | 5.09 µM (inactive) | 0.538 µM (active) | 0.55 µM (active) | 0.437 µM (active) | 0.236 µM (active) | 0.412 µM (active) | – | 1.17 µM (inactive) | 0.238 µM (active) | 0.283 µM (active) | 1.25 µM (inactive) | 2.74 µM (inactive) | 1.15 µM (inactive)
CN(C)CCCN=C(N)N | > 100 µM (inactive) | > 100 µM (inactive) | 85.3 µM (inactive) | > 100 µM (inactive) | > 100 µM (inactive) | > 100 µM (inactive) | > 100 µM (inactive) | > 100 µM (inactive) | > 100 µM (inactive) | > 100 µM (inactive) | > 100 µM (inactive) | > 100 µM (inactive) | > 100 µM (inactive) | > 100 µM (inactive) | > 100 µM (inactive) | > 100 µM (inactive) | – | > 100 µM (inactive) | > 100 µM (inactive)
COC(=O)C1=COC(C)C2CN3CCc4c([nH]c5cc(OC)c(OC)cc45)C3CC12 (stereo not drawn) | 64.9 µM (inactive) and 37 µM (inactive) | – | 26.6 µM (inactive) and 29.9 µM (inactive) | > 100 µM (inactive) and 54 µM (inactive) | – | 54.6 µM (inactive) and 72.8 µM (inactive) | 51.1 µM (inactive) and 54.2 µM (inactive) | 27.9 µM (inactive) | > 100 µM (inactive) and 65.9 µM (inactive) | 99.8 µM (inactive) and 88.7 µM (inactive) | – | 50.4 µM (inactive) and 36.8 µM (inactive) | – | 59.4 µM (inactive) and 56.1 µM (inactive) | 70.5 µM (inactive) and 37.6 µM (inactive) | 34.9 µM (inactive) and 29.9 µM (inactive) | 58.2 µM (inactive) and 36.1 µM (inactive) | 15.3 µM (inactive) | > 100 µM (inactive) and 65 µM (inactive)
CNC(=O)N1N[C@H](c2ccccc2)[C@@H]1c1ccccc1.OB(O)O | 28.1 µM (inactive) | 32.4 µM (inactive) | 23.7 µM (inactive) | 22.5 µM (inactive) | 20 µM (inactive) | 22.2 µM (inactive) | 22.5 µM (inactive) | – | 21.9 µM (inactive) | 13.2 µM (inactive) | 18.6 µM (inactive) | 16.3 µM (inactive) | 15.6 µM (inactive) | 17.3 µM (inactive) | 22.6 µM (inactive) | 20 µM (inactive) | 31 µM (inactive) | 14.2 µM (inactive) | –
CC(SCc1ccccc1)C(=O)O (stereo not drawn) | > 100 µM (inactive) | > 100 µM (inactive) | > 100 µM (inactive) | > 100 µM (inactive) | > 100 µM (inactive) | > 100 µM (inactive) | > 100 µM (inactive) | > 100 µM (inactive) | > 100 µM (inactive) | > 100 µM (inactive) | > 100 µM (inactive) | > 100 µM (inactive) | > 100 µM (inactive) | > 100 µM (inactive) | > 100 µM (inactive) | > 100 µM (inactive) | – | > 100 µM (inactive) | > 100 µM (inactive)
COc1cc(O)c2c(=O)c3ccccc3n(C)c2c1 | > 100 µM (inactive) | 24 µM (inactive) | > 100 µM (inactive) | 13.4 µM (inactive) | 29.4 µM (inactive) | 0.555 µM (active) | 6.85 µM (inactive) | – | > 100 µM (inactive) | 24.6 µM (inactive) | > 100 µM (inactive) | 4.66 µM (inactive) | – | 27.7 µM (inactive) | > 100 µM (inactive) | > 100 µM (inactive) | > 100 µM (inactive) | 14.9 µM (inactive) | 53.7 µM (inactive)
CC1(C)CC[C@]2(C(=O)O)CC[C@]3(C)C(=CC[C@@H]4[C@@]5(C)C[C@H](O)[C@H](O)[C@@](C)(CO)C5=CC[C@]43C)[C@@H]2C1 | 67.9 µM (inactive) | > 100 µM (inactive) | > 100 µM (inactive) | 37.7 µM (inactive) | 61.7 µM (inactive) | 53.2 µM (inactive) | 39.3 µM (inactive) | 50.5 µM (inactive) | > 100 µM (inactive) | > 100 µM (inactive) | 31.1 µM (inactive) | > 100 µM (inactive) | 32.1 µM (inactive) | 25.8 µM (inactive) | 46.8 µM (inactive) | 22.5 µM (inactive) | 35.4 µM (inactive) | – | 43.1 µM (inactive)
CN1CCN(Cc2cc3c(nn2)-c2ccccc2C3=O)CC1 | 37.8 µM (inactive) | 54.6 µM (inactive) | 21 µM (inactive) | > 100 µM (inactive) | 44.3 µM (inactive) | 46.3 µM (inactive) | 32.7 µM (inactive) | > 100 µM (inactive) | 31.2 µM (inactive) | 44.4 µM (inactive) | 38.5 µM (inactive) | 16.9 µM (inactive) | > 100 µM (inactive) | > 100 µM (inactive) | 35 µM (inactive) | 17.7 µM (inactive) | – | > 100 µM (inactive) | > 100 µM (inactive)
CCSc1nnc2c(-c3ccccc3)n[nH]c2n1 | > 100 µM (inactive) | 24.3 µM (inactive) | > 100 µM (inactive) | 30.4 µM (inactive) | > 100 µM (inactive) | 16 µM (inactive) | > 100 µM (inactive) | > 100 µM (inactive) | > 100 µM (inactive) | > 100 µM (inactive) | > 100 µM (inactive) | > 100 µM (inactive) | 27.2 µM (inactive) | 31 µM (inactive) | > 100 µM (inactive) | > 100 µM (inactive) | – | > 100 µM (inactive) | 49.1 µM (inactive)

From ChEMBL document CHEMBL1201862, “PubChem BioAssay data set” (2004)
